Values quoted from earlier work in US20240016871A1, “Non-toxic furocoumarin-rich plant extracts and related compositions for use as antimicrobial substance or medicament and other therapeutic uses” (ICE-P LIFE, S.L., priority 2020, published 2024).

Columns and labels:
[1] = system: DBA/2 strain mice; conditions: single oral doses
[2] = system: p53 knockout mouse; conditions: platelets treated with amotosalen, after filtration and removal of amotosalen conjugated with pathogens

| Compound | liver necrosis [1] | carcinogenicity [2] |
| --- | --- | --- |
| O=c1ccc2ccccc2o1 [coumarin] | produce liver necrosis |  |
| Cc1oc2c(C)c3oc(=O)cc(C)c3cc2c1COCCN.Cl [amotosalen, amotosalen HCl] |  | non-carcinogenic |
